≈ marks a conversion by molar mass, not a printed value.
What was measured:
[1] = Pharmacokinetic study in monkeys; conditions: in vivo, Cynomolgus monkey, animal 583, dose 11.8 mg/kg, suspension Cilengitide 300 mg/mL + DMPG 2 mg/mL, read-out: MSC1097999
Description: • Composition (Suspension) administered • Cilengitide: 300 mg/mL • DMPG: 2 mg/mL • Phenol: 0.5% • NaCl: 0.9% • Species/strain and number of animals • Monkey, Cynomolgus • Dose: 12 mg/kg (40 μL suspension/kg) • Sampling time points: 0.25, 0.5, 2, 4, 8 hours post dose: […]

[2] = Dynamic vapour experiments (Water Vapour Sorption, 25° C.); format: physicochemical; conditions: for mass loss in the first desorption cycle / initial drying step (0% rh) / total mass loss in the second desorption cycle: Water Vapour Sorption; for maximum weight gain upon water vapour adsorption (assembly of water molecules in the lattice): at elevated rh
From the text: (§1) A SMS DVS Intrinsic is used for the dynamic vapour experiments. The results are obtained by standard techniques as described in Rolf Hilfiker, ‘Polymorphism in the Pharmaceutical Industry’, Wiley-VCH. Weinheim 2006 (Chapter 9: Water Vapour Sorption, and references therein). […] Upon water vapour adsorption, an assembly of water molecules in the lattice is observed, with a maximum weight gain of approx. 8 wt % at elevated rh. In the second desorption cycle a total mass loss of approx. 9.9 wt % is observed. For a Cilengitide Dihydrate Di-Methanolate, the calculated Methanol content equals 9.3 wt %.
as §1, with “6.4” for “8”, “9.2” for “9.9”, “Di-Ethanolate,” for “Di-Methanolate,”, “Ethanol” for “Methanol”, “12.5” for “9.3”

[3] = Thermodynamic stability of crystalline forms (slurry / vapour atmosphere); format: physicochemical
From the text: Wetted material in this regard is preferably a mixture of the respective anhydrate with at least 5% by weight, more preferably at least 10% by weight and especially 20% by weight, of the respective aqueous system.
Upon water vapour adsorption, an assembly of water molecules in the lattice is observed, with a maximum weight gain of approx. 6.4 wt % at elevated rh. In the second desorption cycle a total mass loss of approx. 9.2 wt % is observed. For a Dihydrate Di-Ethanolate of the compound of formula Id, the calculated Ethanol content equals 12.5 wt %.
Also the pure form A1 can be manufactured by competitive slurry conversion experiments with a mixture of a pseudopolymorphic form (for example S1, S2, S3 or mixtures of these) and A1 (1:1) in Acetone, Acetonitrile, Isopropanol, physiological NaCl solution, Phosphate buffer (pH 7.4) and 1:1 (v:v) mixtures of Acetone, Acetonitrile, Isopropanol with Water at RT (25° C.).
Approx. 20 mg of a pseudopolymorphic form (for example S1, S2, S3 or mixtures of these) and 20 mg of form A1 of Cilengitide are dispersed in 200-700 μl solvent at room temperature. The dispersion is stirred for 5 days and additionally 26 days (long-term experiment) at RT (25° C.) by a magnetic stirrer and finally filtered. […]

[4] = Saturation solubility of Cilengitide solid forms in water and solvents; format: physicochemical
Description: Solubility in this regard is preferably refers to the saturation solubility, which is preferably the maximum mass of the respective compound, which can be solubilised or dissolved in a solvent at a respective temperature and at a specific pressure, preferably atmospheric pressure.
10 mL of solvent is placed in an amber glass ampul and sufficient substance is added to yield a distinct sediment that remains on the bottom after mixing thoroughly. After standing for 15 minutes and mixing again the ampuls are sealed and shaken in a thermostatically controlled water bath (20° C./16 hours or 25° C./16 hours, preferably 20° C./16 hours). Afterwards the ampuls are opened and the supernatant solution is filtered until the filtrate is clear. The content of the substance is determined photometrically in an aliquot by means of the specific adsorption coefficient. The respective dilution of the solvent without substance serves as blank. The solubility is expressed in the dimension of g substance in 100 mL or mg substance in 1 mL, preferably in mg substance in 1 mL. Preferably, this method is performed at normal atmospheric pressure and especially at the standardised “normal” atmospheric pressure, i.e. 1 atm=1.01325 bar.

## CC(C)[C@H]1C(=O)N[C@@H](CCCN=C(N)N)C(=O)NCC(=O)N[C@@H](CC(=O)O)C(=O)N[C@H](Cc2ccccc2)C(=O)N1C [MSC1097999]
[1]; 0.250 h
  level at 0.25 h: 586 ng/mL
[1]; 0.500 h
  level at 0.5 h: 967 ng/mL
[1]; 2.00 h
  level at 2 h: 892 ng/mL
[1]; 4.00 h
  level at 4 h: 605 ng/mL
[1]; 8.00 h
  level at 8 h: 537 ng/mL

## CC(C)[C@H]1C(=O)N[C@@H](CCCNC(=N)N)C(=O)NCC(=O)N[C@@H](CC(=O)O)C(=O)N[C@H](Cc2ccccc2)C(=O)N1C [crystalline form A1, cyclo-(Arg-Gly-Asp-DPhe-NMeVal)]
[2]; water uptake up to 98% relative humidity
  hygroscopicity classification acc. to Ph. Eur. criteria: non-hygroscopic
[3]; in the presence of aqueous based solvents, absence of methanol and/or ethanol
  thermodynamic stability of the form: thermodynamically stable form
[4]; water, at 20° C. or 25° C., preferably at 20° C.
  solubility at 16 h: ~7000 µg/mL (≈ 11.9 mM)

## CC(C)[C@H]1C(=O)N[C@@H](CCCNC(=N)N)C(=O)NCC(=O)N[C@@H](CC(=O)O)C(=O)N[C@H](Cc2ccccc2)C(=O)N1C [tetrahydrate Form S3, cyclo-(Arg-Gly-Asp-DPhe-NMeVal)]
[2]
  mass loss in the first desorption cycle / initial drying step (0% rh): ca. 9 wt %
  maximum weight gain upon water vapour adsorption (assembly of water molecules in the lattice): ca. 10 wt %
[4]; solvent H2O/Acetone (1:1)
  Solubility: 22700 µg/mL

## cyclo-(Arg-Gly-Asp-DPhe-NMeVal) [form S1]
[2]
  mass loss in the first desorption cycle / initial drying step (0% rh): approx. 8 wt %
  total mass loss in the second desorption cycle: approx. 9.9 wt %
  maximum weight gain upon water vapour adsorption (assembly of water molecules in the lattice): approx. 8 wt %

## cyclo-(Arg-Gly-Asp-DPhe-NMeVal) [form S2]
[2]
  mass loss in the first desorption cycle / initial drying step (0% rh): approx. 6.5 wt %
  total mass loss in the second desorption cycle: approx. 9.2 wt %
  maximum weight gain upon water vapour adsorption (assembly of water molecules in the lattice): approx. 6.4 wt %
[2]; listed as crystalline form S2
  mass loss in the first desorption cycle / initial drying step (0% rh): approx. 6.5 wt %
  total mass loss in the second desorption cycle: approx. 9.2 wt %
  maximum weight gain upon water vapour adsorption (assembly of water molecules in the lattice): approx. 6.4 wt %
[3]; atmosphere of 100% Ethanol vapour
  thermodynamic stability of the form: thermodynamically stable form
